Assay results: patent publication US20030060463A1, “Preparation of topical regional compositions for the relief of pain” (priority 1995, published 2003)
Like-named read-outs stand apart in the source and are kept apart here.

Tested on: pain due to nerve injury (SMP)
Type: in vivo, human
Text: The purpose of this study was to evaluate and compare the safety and efficacy in the application of five topical compositions prepared with three active ingredients and applied singly or in combinations for the purpose of relief of sympathetically mediated pain (SMP).
The study size was a total of thirty four volunteer subjects; fifteen female and nineteen male volunteer subjects. Their ages ranged from 29 to 84 with a mean of 52 years of age. All subjects were diagnosed with severe sympathetically mediated pain.
Three different therapeutically active agents were utilized, alone or in combination, in preparations of lecithin matrix gels.
A different composition was applied each treatment day to the area of maximum pain. The patients were asked to indicate the level of their pain immediately prior to the application of the compositions, and then at intervals of 5, 10, 15 minutes, 1, 2 and 3 hours after receiving treatment. Pain intensity was measured using the scale below.
SIGNIFICANT PAIN RELIEF WAS DEFINED AS >50% PAIN RELIEF SUSTAINED GREATER THAN 2 HOURS. For example, if a given patient rated their pain immediately prior to application of the compositions as “very intense”, they would get a 1.8 score per the scale. […]

SMILES	Safety and efficacy in clinical trials at other dosages (dosage between 0.05% to 2% of the topical composition)	Safety and efficacy in clinical trials at other dosages (human, in vivo)
CNC1(c2ccccc2Cl)CCCCC1=O (centres unmarked) [ketamine]	safe and effective	
CN(C)CCC=C1c2ccccc2CCc2ccccc21 [amitriptylline]		safe and effective
